Data: patent publication US11433070B2, “Synergistic anti-inflammatory compositions” (The Procter & Gamble Company, priority 2019, dated 2022)

Tests used:
[1] = system: PGE2 release from TERT keratinocytes (tKC); assay: PGE2 assay: inhibition of PGE2 release from UVB-stressed keratinocytes, normalized to ATP; format: cell-based, human; conditions: for AVG PGE2 % Control / AVG PGE2 % Inhibition: piroctone olamine 1E-7% (w/v), alone or combined (observed), 15 mJ/cm2 UVB, 18-24 h; for Inhibiting PGE2 release from keratinocytes, individually (in words): each material alone
From the text: Inhibiting the Cell's Inflammation Response to a Stressor-Prostaglandin E2 (“PGE2”) Assay. […] PGE2 is a hormone-like substance that is known to participate in modulation of inflammation. Cellular inflammation is associated with a variety of hair, skin and scalp conditions, and thus inhibiting PGE2 activation vis-à-vis cellular inflammation may help treat these types of hair, skin and scalp conditions. TERT keratinocytes (tKC) are human keratinocytes which have been transfected with the human telomerase reverse transcriptase gene to immortalize the cells. They are obtained from Jerry Shay, University of Texas, Southwestern and plated at 40,000 cells/well into 24-well plates in 1 ml/well volume. EpiLife Medium (Life Technologies cat #[…]500) supplemented with keratinocyte growth supplement (Life technologies cat #S-001-5) is used as the assay media. The cells are grown to confluence/near confluence, (typically 24 hours after plating 40,000 cells/well in 24 well plate) and then subjected to 15 mJ/cm^2 UVB-stress (typically 14-16 exposure time in BioSun). […] The supernatant is removed from each well, and the cells are rinsed with 2 ml/well medium (without supplements). A Cell Titer-Glo assay (Promega cat #G7571; Madison Wis.) is used to measure ATP activity, which is conducted on the cells for normalization. The supernatant is tested in a PGE2 assay (Prostaglandin E2 Assay kit from Cisbio Bioassays cat #62P2APEB) according to the manufacturer's instructions. The PGE2 results are normalized to ATP activity. The PGE2 quantitation (pg/mL) from the supernatant is divided by the normalization factor (treatment ATP/control ATP). […] Synergy factor is simply the ratio of observed combination/expected combination.

[2] = system: TERT keratinocytes (tKC); assay: Cell Titer-Glo assay measuring ATP activity, used for normalization; format: cell-based, human; conditions: example calculation; vehicle control 704567
Description: TERT keratinocytes (tKC) are human keratinocytes which have been transfected with the human telomerase reverse transcriptase gene to immortalize the cells. They are obtained from Jerry Shay, University of Texas, Southwestern and plated at 40,000 cells/well into 24-well plates in 1 ml/well volume. EpiLife Medium (Life Technologies cat #[…]500) supplemented with keratinocyte growth supplement (Life technologies cat #S-001-5) is used as the assay media. The cells are grown to confluence/near confluence, (typically 24 hours after plating 40,000 cells/well in 24 well plate) and then subjected to 15 mJ/cm^2 UVB-stress (typically 14-16 exposure time in BioSun). […] The supernatant is removed from each well, and the cells are rinsed with 2 ml/well medium (without supplements). A Cell Titer-Glo assay (Promega cat #G7571; Madison Wis.) is used to measure ATP activity, which is conducted on the cells for normalization. The supernatant is tested in a PGE2 assay (Prostaglandin E2 Assay kit from Cisbio Bioassays cat #62P2APEB) according to the manufacturer's instructions. The PGE2 results are normalized to ATP activity. The PGE2 quantitation (pg/mL) from the supernatant is divided by the normalization factor (treatment ATP/control ATP).

[3] = cited from earlier work
[4] = 1:1 azoxystrobin:PO block, azoxystrobin 1E-7%
[5] = 1:10 azoxystrobin:PO block, azoxystrobin 1E-8%
[6] = 1:50 azoxystrobin:PO block, azoxystrobin 2E-9%
[7] = 4:1 azoxystrobin:PO block, azoxystrobin 4E-7%

In the case of `CO/C=C(/C(=O)OC)c1ccccc1Oc1cc(Oc2ccccc2C#N)ncn1` [azoxystrobin], the “AVG PGE2 % Control” value [1, 4] is reported as 92%, the “AVG PGE2 % Inhibition” value [1, 4] is reported as 8% and the “AVG PGE2 % Control” value [1, 5] is reported as 99%. For the same molecule, the “AVG PGE2 % Inhibition” value [1, 5] was 1%, the “AVG PGE2 % Control” value [1, 6] was 99% and the “AVG PGE2 % Inhibition” value [1, 6] was 1%. The “AVG PGE2 % Control” value [1, 7] was 87%, the “AVG PGE2 % Inhibition” value [1, 7] was 13% and the “Inhibiting PGE2 release from keratinocytes, individually (in words)” value [1] was “relatively weak”. For the same molecule, the “% inhibition (PGE2)” value ([1]; example calculation vs vehicle control) was 8%, the “Normalized PGE2 value” ([1]; example calculation, PGE2 quantitation divided by normalization factor, control 2458) was 2261 and the PGE2 quantitation ([1]; example calculation, supernatant, before ATP normalization, vehicle control 2458 pg/mL) was 2347 pg/mL. The “Luminescence in ATP assay” value [2] was 678903 and the “Solubility in water (in words)” value [3] was “low solubility in water”.
In the case of `Cc1cc(CC(C)CC(C)(C)C)n(O)c(=O)c1.NCCO` (centres unmarked) [piroctone olamine, 1-Hydroxy-4-methyl-6-(2,4,4-trimethylpentyl)-2-pyridone monoethanolamine salt], the “AVG PGE2 % Control” value [1, 4] is reported as 96.5%, the “AVG PGE2 % Inhibition” value [1, 4] is reported as 3.5% and the “AVG PGE2 % Control” value [1, 5] is reported as 96.2%. The “AVG PGE2 % Inhibition” value [1, 5] was 3.8%, the “AVG PGE2 % Control” value [1, 6] was 96.2% and the “AVG PGE2 % Inhibition” value [1, 6] was 3.8%. The “AVG PGE2 % Control” value [1, 7] was 96.2%, the “AVG PGE2 % Inhibition” value [1, 7] was 3.8% and the “Inhibiting PGE2 release from keratinocytes, individually (in words)” value [1] was “relatively weak”.
